The target of data set [1] is T1, cMet (Homo sapiens, UniProt P08581).
T1 construct: cMet-Fc, which represents the ectodomain of cMet fused to the Fc domain of human IgG1 was purchased from R&D Systems; purchased R&D Systems
Briefly: Filter retention assay with 32P-labeled aptamer. The data set is classed as binding. Conditions: filter retention assays. From the text:
The anti-cMet aptamer trCLN3, a 40 nucleotide DNA oligonucleotide rich in guanine sequence, is known to form two intramolecular G-quadruplex structure within the G-rich segment of the aptamer. The G-quadruplex structure in trCLN3 is believed to play a role in target recognition and binding to cMet. […] See J. Vinkenborg et al., Angew Chem Int Ed. 2012, […], 9176-9180; which reference is incorporated herein in its entirety. Binding affinity of trCLN3.mut, a control sequence with a guanine double-point mutation corresponding to G7 and G25 was further verified by filter retention assays.

Data set [2] is described as follows: Serum stability in PBS-buffered fetal calf serum (PAGE of 32P-labeled aptamer). It counts as in vitro ADME. Conditions: 10% PBS-buffered FCS, 37° C., 0 to 72 h. As for the experimental part:
(§1) Serum stabilities of trCLN3, its two point mutant non-binding variant trCLN3.mut and their corresponding lipid-functionalized derivatives trCLN3-L4 and trCLN3.mut-L4 were investigated in fetal calf serum (FCS) and human blood serum. For this purpose, the aptamer motifs were labeled at their 5′-end with ^32P to form radiolabeled oligonucleotides. The degradation tests of all the aptamer motifs were performed for 60-72 h at 37°° C. 6 pmol (12 μl of 0.5 μM) of the radio-labeled aptamer (5′-end-labeled with γ-^32P) was incubated in a volume of 300 μl freshly thawed PBS-buffered FCS or human blood serum (270 μl serum+30 μl 10×PBS). For each measurement, 10 μl of the samples were removed, mixed with 90 μl of gel loading buffer (80% formamide+5 mM EDTA+0.01% SDS) and subsequently stored at −20° C. Aliquots of samples were taken after indicated time intervals of 0, 0.3, 1.5, 3, 6, 24, 48, 60 and 72h respectively. The serum stability of the aptamer in FCS or in HBS at different time intervals were analyzed on a denaturing PAGE by loading 10 μl of each sample onto a 10% TAE-Urea gel and running the gels for 90 minutes at 350 V. Gels were wrapped in clingfilm and exposed to a phosphorimager screen in a closed cassette over a period of 12 h and finally the residual intact aptamer bands were analyzed by scanning the screen in a phosphorimage-scanner (FujiFilm FLA 3000). Intensities of the residual intact aptamer bands were calculated applying AIDA image analyzer software program. Serums half-lives of the selected aptamers were determined by using a half-life curve-fitting data analysis program (GraphPad Prism).

Data set [3] in a line: Serum stability in PBS-buffered human blood serum (PAGE of 32P-labeled aptamer). The data set is classed as in vitro ADME. Conditions: 10% PBS-buffered HBS, 37° C., 0 to 72 h. The method, then:
as §1

The subject of data set [4] is H1838 cells. Briefly: Confocal microscopy of photo-triggered DxR release in cells. The data set is classed as cell-based, human. Conditions: DxR 40 μM, 37° C., 2 h, without UV irradiation. As for the experimental part: In vitro cell imaging of the cell internalization studies were performed using fluorescence microscopy. Prior to each experiment one 70 to 80% confluent flask was trypsinised and suspended with 10 ml of cell medium. 10 μL of the cell solution was pipetted onto a haemocytometer and the cells were counted. Twenty-four hours prior to the internalization experiments approximately 10,000 NSCLC cells were seeded in 96-well glass bottom multiwell cell culture plates (MatTek® Corporation). The plates were then incubated for 24 hours at 37° C. in 5% CO2-atmosphere. […]
To verify the HyApNc-mediated selective transport of DxR to target cells and its light-triggered release from motif 4, we monitored the fluorescence signal of DxR within and outside of the cell nuclei of H1838 cells that were treated with either free DxR (as control) or with HyApNc-DxR (see Example 1 for details of DxR loading), while keeping the DxR concentrations in the bound and the unbound form fixed at 40 μM (5 μM HyApNc carrying 8 equivalents of DxR). […] When control experiments were performed with a construct lacking DMAB (HyApNcw/oAz-DxR), near-identical DxR fluorescence signals are predominantly observed in the cytosol of the cells with and without UV exposure (FIG. 24A, IV-V).

In data set [5] the test system is NCI-H1838 lung cancer cells. Description: Cell viability (MTT) assay, dose dependent. The data set is classed as cell-based. The conditions noted are these: Homo sapiens, free DxR alone (control), MTT after 24 h. The method, then: To assess the cytotoxicity of free DxR and HyApNc-DxR in NCI-H1838 lung cancer cells, the H1838 cells (2×10^4 cells/well) were seeded in a 96 well plate and grown for 24 h. The cells were then washed with 1×PBS (200 μL) and subsequently treated with i) free DxR (as control), ii) HyApNc-DxR or iii) HyApNc.mut-DxR in a dose dependent way with a final DxR concentration ranging from 0.125μM to 50 μM per well. After 2 h of post-treatment, the cells were washed; the RPMI medium was replaced with a fresh RPMI medium, and subsequently either irradiated with UV light for 5 minutes (_=365 nm; 350 mW/cm^2), or not irradiated. Afterwards the cells were incubated for another 24 h at 37° C.
Then for both experiments, 15 μL of a 3-(4,5-dimethylthiazol-2-yl)-2,5-diphenyltetrazolium bromide (MTT) stock solution (5 mg/mL) was added to each well and the cells were incubated at 37° C. for 6 hours. After 6 h post-tretment with MTT solutions, 100 μL of the SDS-HCL solution was added to each well and mixed thoroughly with a pipette and incubated at 37° C. for an additional 12 hours. Finally the absorbance was measured at λ=570 nm by using a Tecan Infinite® M1000 PRO microplate reader.

Data set [6] deals with H1838 cells. The conditions noted are these: DxR 8 μM, 37° C., 2 h, non-irradiated.
Procedure: For flow cytometry analysis of HyApNc-mediated DxR uptake, the H1838 cells (1×10^5 cells/well) were seeded for 24 h at 37° C. […] The plates were then incubated for 2 h at 37° C. Afterwards, the cells were detached from the plates by trypsinization and transferred to FACS tubes. The cells were then washed twice by centrifugation with 0.5 mL buffer. Afterwards the cell pellets were resuspended in 100 μL 1×PBS buffer and cither irradiated with UV light for 5 minutes (_=365 nm, 350 mW/cm^2) or not irradiated before subjected to FACS analysis. Fluorescence emissions of the internalized DxR were recorded with a 585/42-nm band-pass filter.
Data set [7] concerns the target T1, cMet. Briefly: Competitive filter-binding assay against γ-32P-labeled trCLN3. Conditions: competition with γ-32P-trCLN3, cMet ~50 nM, competitor 1 μM-25 pM, 37° C. The method, then:
To test the effect of lipid-modification on trCLN3 binding properties, we determined IC50 values for each trCLN3 derivative by a competitive filter retention assay in which varying concentrations of unlabeled 5′-(1-dodecynyl)-functionalized trCLN3 aptamers competed with constant amounts of γ-^32P-labeled trCLN3 in binding to cMet. Two control experiments were also performed using unlabeled trCLN3 and its two point mutant variant trCLN3.mut as competitors.
First, the trCLN3 motif was 5′-end-labeled with γ-^32P ATP using T4 polynucleotide kinase. An aliquot of 20 μL solution containing 50 pmol trCLN3. 6.7 pmol γ-^32P ATP and 20 U T4 polynucleotide kinase in 1× polynucleotide kinase buffer (New England Biolabs) was incubated at 37° C. for 45 min. followed by removal of unreacted γ-^32P ATP using an Illustra G-25 microspin column (GE Healthcare. München, Germany). The purity of the radiolabeled aptamer was confirmed using a 10% PAGE-gel.
0.25 mg/ml BSA. 2 mM MgCl2 in 1×PBS, pH 7.4. […] Residual radioactivity due to cMet bound labeled aptamers was quantified using Fujifilm Fla-3000 PhosphorImager and AIDA software. The curves were fitted with GraphPadPrism 3.02 plotting non-linear regression curve and the IC50 values have been calculated assuming a competition for single binding site.

In data set [8] the target is T1, cMet. Conditions: binding to HGFR (cMet); read-out: dissociation constant (Kd); cited from earlier work.

Values joined by “and” are separate entries in the source; they are usually repeats but may differ in a detail not shown here. Equal entries are not always repeated.

The values below come from patent US20240425867A1, “NUCLEIC ACID-BASED ASSEMBLY AND USES THEREOF” (Rheinische Friedrich-Wilhelms-Universität Bonn, priority 2016, published 2024).

T1 sequence (P08581 25-932 limits assumed): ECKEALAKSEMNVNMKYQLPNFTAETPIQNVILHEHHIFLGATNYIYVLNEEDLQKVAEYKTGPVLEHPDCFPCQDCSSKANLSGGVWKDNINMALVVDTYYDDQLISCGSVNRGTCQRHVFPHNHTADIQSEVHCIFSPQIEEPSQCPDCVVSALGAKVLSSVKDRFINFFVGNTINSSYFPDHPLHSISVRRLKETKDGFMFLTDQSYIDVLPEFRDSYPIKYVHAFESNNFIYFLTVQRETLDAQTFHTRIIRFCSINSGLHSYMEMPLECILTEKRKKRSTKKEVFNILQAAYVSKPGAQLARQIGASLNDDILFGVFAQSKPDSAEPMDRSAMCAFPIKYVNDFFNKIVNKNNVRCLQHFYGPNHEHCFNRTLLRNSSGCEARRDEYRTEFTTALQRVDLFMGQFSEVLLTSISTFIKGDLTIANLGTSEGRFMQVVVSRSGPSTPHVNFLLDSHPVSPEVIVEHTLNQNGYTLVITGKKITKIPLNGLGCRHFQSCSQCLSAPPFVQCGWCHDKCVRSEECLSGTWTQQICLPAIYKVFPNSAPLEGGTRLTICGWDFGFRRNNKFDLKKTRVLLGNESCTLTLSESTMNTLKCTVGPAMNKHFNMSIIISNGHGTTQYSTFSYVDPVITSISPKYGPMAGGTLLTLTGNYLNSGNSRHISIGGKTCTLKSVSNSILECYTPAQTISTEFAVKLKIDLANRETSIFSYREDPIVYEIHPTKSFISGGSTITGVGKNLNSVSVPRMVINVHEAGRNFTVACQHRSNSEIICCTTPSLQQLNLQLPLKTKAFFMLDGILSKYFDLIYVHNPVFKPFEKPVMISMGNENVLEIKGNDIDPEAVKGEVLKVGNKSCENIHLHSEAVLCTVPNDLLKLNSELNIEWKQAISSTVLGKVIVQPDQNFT

Regarding “trCLN3.mut: non-binding control sequence of trCLN3 with guanine double-point mutation at G7 and G25 (DNA TGGATGATAGCTCGGTCGGGGTGGATGGGTTGGCAAGTCT; DNA, backbone and methylation of C not given here)”, the “binding to cMet” value with cMet [1] is “almost no binding”. The “serum half-life (t1/2)” value in data set [2] amounted to 2.8 h; in data set [3], 1.9 h.
As to `COc1cccc2c1C(=O)c1c(O)c3c(c(O)c1C2=O)C[C@@](O)(C(=O)CO)C[C@@H]3O[C@H]1C[C@H](N)[C@H](O)[C@H](C)O1` [free DxR, (7S,9S)-7-[(2R,4S,5S,6S)-4-amino-5-hydroxy-6-methyloxan-2-yl]oxy-6,9,11-trihydroxy-9-(2-hydroxyacetyl)-4-methoxy-8,10-dihydro-7H-tetracene-5,12-dione], in the data set on H1838 cells [4], the “DxR fluorescence in cell nuclei (confocal)” value is on record as “Strong DxR fluorescence”. Besides, in data set [5], the IC50 (in general, the concentration that inhibits the measured activity by half) is 8 µM and 4.7 µg/mL. Also, the “increase in mean cellular fluorescence intensity vs equivalent dose of HyApNc-DxR or HyApNcw/oAz-DxR” value in the data set with H1838 cells [6] was 5 fold.
“trCLN3: 40-nucleotide anti-cMet DNA aptamer, 5′-TGGATGGTAGCTCGGTCGGGGTGGGTGGGTTGGCAAGTCT-3′ (DNA, backbone and methylation of C not given here)”: the IC50 with cMet [7] amounted to 56 nM. Besides, the results for the “serum half-life (t1/2)” value in data set [2] and in data set [3] were 8.7 h and 4.9 h, respectively. For the same molecule, in the data set with cMet [8], the Kd (as a rule, the concentration at which binding is half-saturated) is 38 nM.
